# Measurements reported in PMC8333425, “Discovery of a dual Ras and ARF6 inhibitor from a GPCR endocytosis screen” (Nature Communications, 2021).
# Target: H-Ras (Homo sapiens, UniProt P01112)
# Assay: In vitro mant-GTP exchange assay, purified H-Ras with 40 mM EDTA
# Assay type: biochemical
# Parameters: the cDNA of H-Ras (full length) was obtained by RT-PCR of HEK293SL; GST (N); made in house; host or cells: E. coli BL21
# Description: Ras activity was assessed in a 384-well black bottom plate using the mant-GTP exchange factor assay that measures the uptake of the fluorescent nucleotide analog N-methylanthraniloyl-GTP (mant-GTP) into GTPases. For Ras activation, 2X exchange buffer, 1.66 μg of purified pGEX-6P-1-H-Ras or pGEX-6P-1-K-Ras-WT or pGEX-6P-1-K-Ras-Y32A were added per well in presence of DMSO, different concentrations of Rasarfin (as indicated) or 50 µM of compounds 21.4, 21.7, or 21.8. Using the Infinite 200 Pro plate reader (Tecan) with filters set at 360 nm and 440 nm for detecting the excitation and emissions, respectively, and temperature set at 20 °C, 5 readings were recorded every 5 s before the addition of either H2O, 40 mM EDTA or 0.66 μg purified SOS1. The fluorescence of mant-GTP uptake was measured every 30 sec for 30 min and quantified as the delta relative fluorescence units (RFU), which was calculated as the RFU post-addition minus the 5 averaged RFU pre-addition, per condition.
# Chain of H-Ras (P01112 whole entry): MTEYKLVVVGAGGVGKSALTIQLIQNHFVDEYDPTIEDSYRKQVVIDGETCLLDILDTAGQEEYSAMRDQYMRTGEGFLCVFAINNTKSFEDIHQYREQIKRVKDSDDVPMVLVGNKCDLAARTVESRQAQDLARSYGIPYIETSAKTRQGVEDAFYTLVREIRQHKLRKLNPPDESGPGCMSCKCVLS
smiles,measurement,value
CC(C)C(=O)N1CCN(c2ccc(NC(=O)c3cc4ccccc4o3)cc2Cl)CC1 [Compound 21],mant-GTP binding to purified H-Ras promoted by EDTA,also inhibited mant-GTP binding promoted by EDTA
